1 compound from ChEMBL document CHEMBL4804284 can be followed below.

Test [1] deals with Serine/threonine-protein kinase LATS2 (Homo sapiens) (UniProt Q9NRM7). The test can be described thus: Inhibition of DNA-tagged human LATS2 assessed as percent of control at 50000 nM by qPCR analysis relative to control. Set-up: scale not given: the % may be the effect or the level left. For orientation: Quantitative PCR measures a nucleic acid by following its amplification.

Test [2] addresses TGF-beta receptor type-2 (Homo sapiens) (UniProt P37173). Kind of test: Inhibition of DNA-tagged human TGFBR2 assessed as percent of control at 50000 nM by qPCR analysis relative to control. Set-up: scale not given: the % may be the effect or the level left.

TGF-beta receptor type-2 (Homo sapiens), sequence (P37173 whole entry): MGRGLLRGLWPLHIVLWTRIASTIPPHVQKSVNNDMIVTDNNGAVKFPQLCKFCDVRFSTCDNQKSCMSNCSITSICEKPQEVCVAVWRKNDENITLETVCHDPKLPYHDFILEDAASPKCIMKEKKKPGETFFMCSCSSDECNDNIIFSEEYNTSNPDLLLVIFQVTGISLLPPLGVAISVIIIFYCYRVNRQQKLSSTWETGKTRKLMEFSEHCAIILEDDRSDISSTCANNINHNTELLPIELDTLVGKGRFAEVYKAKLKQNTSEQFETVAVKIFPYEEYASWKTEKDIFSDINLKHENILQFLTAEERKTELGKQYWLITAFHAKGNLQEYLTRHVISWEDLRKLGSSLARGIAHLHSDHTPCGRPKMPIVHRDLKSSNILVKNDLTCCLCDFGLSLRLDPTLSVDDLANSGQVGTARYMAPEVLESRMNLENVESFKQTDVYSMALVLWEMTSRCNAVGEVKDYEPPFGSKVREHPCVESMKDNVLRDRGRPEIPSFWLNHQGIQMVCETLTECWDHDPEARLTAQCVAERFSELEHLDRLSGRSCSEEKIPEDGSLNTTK
Serine/threonine-protein kinase LATS2 (Homo sapiens), sequence (Q9NRM7 whole entry): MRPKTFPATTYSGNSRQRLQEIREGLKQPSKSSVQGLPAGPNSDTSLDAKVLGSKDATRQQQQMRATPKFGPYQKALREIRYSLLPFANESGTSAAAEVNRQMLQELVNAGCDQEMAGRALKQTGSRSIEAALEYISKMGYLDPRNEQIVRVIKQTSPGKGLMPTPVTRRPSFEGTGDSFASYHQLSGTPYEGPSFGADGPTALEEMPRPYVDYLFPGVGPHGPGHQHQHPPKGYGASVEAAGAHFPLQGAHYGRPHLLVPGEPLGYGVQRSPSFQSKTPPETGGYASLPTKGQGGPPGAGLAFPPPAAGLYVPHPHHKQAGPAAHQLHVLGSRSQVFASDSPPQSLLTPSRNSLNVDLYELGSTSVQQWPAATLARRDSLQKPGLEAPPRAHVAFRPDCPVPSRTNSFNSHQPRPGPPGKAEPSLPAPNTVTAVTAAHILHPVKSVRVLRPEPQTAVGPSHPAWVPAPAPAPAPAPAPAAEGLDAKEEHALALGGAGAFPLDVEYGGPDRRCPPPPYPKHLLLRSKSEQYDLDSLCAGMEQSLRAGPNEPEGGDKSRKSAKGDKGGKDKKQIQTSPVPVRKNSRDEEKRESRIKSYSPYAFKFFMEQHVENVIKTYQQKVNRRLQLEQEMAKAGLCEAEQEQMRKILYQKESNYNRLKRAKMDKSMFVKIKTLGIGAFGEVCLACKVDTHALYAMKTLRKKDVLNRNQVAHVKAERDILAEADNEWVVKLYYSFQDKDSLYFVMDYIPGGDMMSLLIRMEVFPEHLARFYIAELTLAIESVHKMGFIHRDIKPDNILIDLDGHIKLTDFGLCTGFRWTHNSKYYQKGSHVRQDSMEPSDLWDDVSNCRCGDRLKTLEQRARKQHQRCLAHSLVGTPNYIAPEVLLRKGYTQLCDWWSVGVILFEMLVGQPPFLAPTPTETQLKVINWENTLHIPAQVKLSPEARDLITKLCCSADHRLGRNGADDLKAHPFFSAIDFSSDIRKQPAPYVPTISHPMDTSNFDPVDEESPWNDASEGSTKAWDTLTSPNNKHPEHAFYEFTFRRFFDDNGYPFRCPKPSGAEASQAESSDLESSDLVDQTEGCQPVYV

As for `CN1C(=O)/C(=C2/C(=O)Nc3ccccc32)c2ccccc21`, the Activity in test [1] is 90%; in test [2], 94%.
